Series [1] can be described thus: Wool growth in defaunated sheep. In kind it is in vivo. The settings on record: sheep, 167 mg/kg. How it is done:
(§1) Seven sheep each were defaunated using a dose rate of 167 mg/kg. Compounds were administered by first mixing with 20 ml of ethanol and then with 200 ml of centrifuged rumen liquor. This solution was then administered via a flexible stomach tube directly into the rumen. The sheep were fed with a ration of 90% oaten chaff and 10% Lucerne chaff at a rate of 1000 g per day. The sheep were maintained in a defaunated state by their isolation from faunated sheep to prevent the possibility of refaunation. The sheep were allowed to adjust for 3 weeks after administering the compound before any wool growth measurements were taken.
(§2) At the start of the wool growth measurement period, a 10 cm square area of wool was removed from both sides of the sheep. After four weeks the same area was reclipped and the wool retained for scouring at the end of the trial.
(§3) The sheep then had protozoa introduced back into their rumen and were allowed to adjust for three weeks. Similarly, during the second four week period, the wool was clipped from the same patch area. The wool harvested during the two four week trial periods was then scoured of wool wax and extraneous material and weighed.

The subject of series [2] is rumen ciliate protozoa. As to the kind of experiment: Protozoal reduction in sheep. In kind it is in vivo. The settings on record: one week after dosing, relative to predosing numbers. On the set-up: concentration or dose not given beside the values. As for the experimental part: Defaunation compositions were prepared according to the method of Example 1.
Prior to dosing of the compound, a sample of rumen liquor (200 ml) was withdrawn to establish basal numbers of protozoa.
The sample was collected using a stomach tube, inserted into the rumen via a rumen cannula (fistulated animals) or per esophagus (intact animals). After straining the sample was well mixed using a magnetic stirrer and a 0.5 ml sample was withdrawn and added to 49.5 ml of a crystal violet stain. Protozoa were counted using a microscope and a Hawksley counting chamber.
One week after administering the compound, another rumen liquor sample was collected (as described above) and examined for the presence of protozoa. Where rumen ciliate protozoa were undetectable, a reduction or inhibition value of 100% was recorded. In general, most compounds expressed a strong inhibitory effect on protozoal populations.

In series [3] the test system is rumen ciliate protozoa. As to the kind of experiment: In vitro activity of defaunation compounds against rumen ciliate protozoa. In kind it is cell-based. The conditions noted are these: 39° C., anaerobic, 3 hours, tested at 50, 150, 250 and 500 ppm. How it is done: Compounds of Table 1 were tested for their toxicity against rumen ciliate protozoa by firstly isolating protozoa from rumen liquor collected from faunated animals. The rumen liquor was then centrifuged at 500 g for five minutes and the supernatant discarded. The protozoal-rich sediment was then reconstituted in McDougal's artificial saliva. Residual bacteria were suppressed by using a combination of two antibiotics at low concentration. Nitrogen and energy substrate was optimized for the protozoal preparation. At all times the protozoal preparation was maintained at 39° C. and kept anaerobic.
Sixty milligrams of each the compounds of Table 1 were dissolved in 1.2 ml of dimethyl sulphoxide and dispersed in triplicate to achieve a final concentration of 50, 150, 250 and 500 ppm. Ten milliliters of protozoal preparation was then added to each tube. After every second compound, control tubes were included which contained everything except for compound. The tubes, to which a 5 ml glass syringe was attached, were then incubated for 3 hours in a water bath at 39° C. The production of gas causes the syringe plunger to be displaced.
At the end of the incubation period, the volume of gas produced was recorded and the viability of the protozoa assessed visually using a microscope. The toxicity of the compounds to protozoa was assessed from both the reduction in gas produced relative to the control and by direct observation of the protozoa for movement of cilia.

Series [4] relates to rumen bacteria. As to the kind of experiment: In vitro bacterial gas inhibition. In kind it is cell-based. The conditions noted are these: at the concentration known to kill protozoa. As for the experimental part:
Compounds of Table 1 were also tested for toxicity bacteria. This involved removing protozoa from rumen liquor by centrifugation at 2,000 g for 5 minutes and collecting the bacterial rich supernatant. Nitrogen and energy substrate was added to the bacterial preparation which was then dispensed in triplicate 10 ml volumes over the same range of compound concentrations (50, 150, 250 and 500 ppm.) referred to in Example 2. Control tubes were placed after every second compound to enable the inhibition of gas resulting from the compound to be assessed. […] It can be seen that these compounds are selective in their mode of action, in that they are more toxic to protozoa than bacteria.

The test system of series [5] is protozoa. The series can be described thus: Sheep test: protozoal numbers. In kind it is in vivo. As for the experimental part: (§4) In this trial the effect of defaunation by compounds 27, 30 and 37 (see Table 1) after 1 and 3 weeks were examined using penned sheep.
(§5) The compounds were each administered to two sheep as a single dose at 167 mg/kg body weight. Compositions containing each compound were prepared according to the method of Example 1. Sheep were penned and fed 1000 g/day of a chaffed oaten hay and Lucerne mixture (90/10). Protozoal and bacterial viabilities were monitored along with the feed intake of the sheep according to the methods taught in Examples 2, 3 and 7.

The subject of series [6] is rumen bacteria. The series can be described thus: Bacterial viability in sheep after administering defaunation compounds. The settings on record: gas production one week after dosing vs pre-dosing. It counts as in vivo. As for the experimental part:
In order to establish what effect the compounds had on the viability of rumen bacteria, a sample of rumen liquor was collected prior to dosing of the compound. The sample was withdrawn under vacuum using a pre-warmed tube inserted into the rumen through a rumen cannula. The sample was collected in a pre-warmed (39° C.) flask, gassed with carbon dioxide and covered. Two-pre-warmed 30 ml centrifuge tubes were then filled with well mixed rumen liquor and centrifuged at 2000 rpm for 5 minutes. Half the volume of each tube was then poured into another pre-warmed tube without disturbing the sediment. Three lots of 10 ml of this rumen liquor were then pipetted into 15 ml tubes which contained 10 μL of urea solution (40% w/v and 300 μL of glucose solution (50% w/v). The urea and glucose acted as substrate for the bacteria. The tubes were then gassed with carbon dioxide, stoppered and placed in a water bath at 39° C. After 10 minutes a 5 ml glass syringe was secured into the stoppers (through which a hypodermic needle had been inserted) and the gas collected for five hours and recorded.
This bacterial viability measure was then repeated one week after dosing with each of the compounds referred to in Table 1. Defaunation compositions were prepared according to the method of Example 1. The amount of gas produced was then compared with the pre-dosing level. The criterion for classifying post-dosing bacterial viability is shown below:
Poor--reduction in post-dosing gas production relative to pre-dosing levels.
OK--post-dosing gas production the same as pre-dosing levels.
Good--increase in post-dosing gas production relative to pre-dosing levels.

Series [7] deals with protozoa. The series can be described thus: Wool growth trial: protozoal number. It counts as in vivo. The conditions noted are these: sheep, defaunated period, 167 mg/kg. How it is done:
as §1, §2, §3

A short description of series [8]: Effect of defaunation compounds on feed intake of sheep. In kind it is in vivo. The settings on record: after dosing vs pre-dosing intake. As for the experimental part:
Sheep were allowed a minimum of three weeks to adapt to their ration of 900 g of oaten chaff and 100 g of Lucerne chaff. The pre-dosing level of intake for each animal was established from the mean of five days intake immediately prior to dosing. Any effects of administering the compound on feed intake was then determined by measuring the level of feed intake after dosing.
The criteria of classifying the effect on food intake are shown below.
Poor--greater than 50% reduction in feed intake during the first week after dosing.
Fair--greater than 50% reduction in feed intake on the day following dosing but less then 50% reduction one week after dosing.
OK--transient drop in feed intake which is less than 50% on the day after dosing.
Good--No reduction in feed intake following dosing.

The test system of series [9] is rumen bacteria. As to the kind of experiment: Sheep test: bacterial gas production. It counts as in vivo. How it is done: as §4, §5
The nature of another series: Sheep test: feed intake. In kind it is in vivo. As for the experimental part: as §4, §5

Consider one compound from patent US5561131A, “Defaunation method” (Mallinckrodt Veterinary, Inc., priority 1991, dated 1996).

The structures appear in SMILES notation.

Take `Cc1ccc(Nc2nc(Cl)nc(Cl)n2)c(C)c1` [Compound 30, 2,4 dichloro-6-(2,4-dimethylanilino)-s-triazine]: in [1] (clean wool growth defaunated vs refaunated), the “Response To Defaun” value is on record as 14.6. In series [1] (defaunated period, 4 weeks, per midside patch), the “Clean Wool Growth” value is listed as 2.830 g. For the same compound, in the series on rumen ciliate protozoa [2], the “Protozoal Reduction” value was 100%. The “Conc Required to Kill all Protozoa” value in the series with rumen ciliate protozoa [3] is on record as 150 ppm. In the series on rumen bacteria [4], the “Bact. Gas Inhibition at the conc. required to kill protozoa” value is 33. The “Protozoal Nos.” value with protozoa [5] (1 week after 167 mg/kg) is 0 per mL × 10^3; in the series on protozoa [5] (3 weeks after 167 mg/kg), 0 per mL × 10^3; in the series on protozoa [5] (pre-dose (baseline)), 346 per mL × 10^3. Further, the “Bacterial Viability” value in the series with rumen bacteria [6] is “Good”. For the same compound, in the series on protozoa [7], the “Prot. Number” value was 0 per mL × 10^3. The “Feed Intake” value is recorded as “Okay (transient drop, less than 50% at day 2)” in series [8]; 625 g/day in the series “Sheep test: feed intake” (1 week after 167 mg/kg); 740 g/day in the series “Sheep test: feed intake” (3 weeks after 167 mg/kg); 887 g/day in “Sheep test: feed intake” (pre-dose (baseline)). The Bacterial gas production with rumen bacteria [9] (1 week after 167 mg/kg) stood at 1.9 M1 per 5 hr; in the series on rumen bacteria [9] (3 weeks after 167 mg/kg), 4.6 M1 per 5 hr; with rumen bacteria [9] (pre-dose (baseline)), 4.4 M1 per 5 hr.
